IC50 data for 2 molecules are collected here from ChEMBL document CHEMBL1149518, “High affinity inhibitors of the dopamine transporter (DAT): novel biotinylated ligands for conjugation to quantum dots” (Bioorg Med Chem Lett, 2006).

The experiment has as its target Sodium-dependent dopamine transporter (Homo sapiens, UniProt Q01959). In words: Inhibition of [3H]dopamine uptake at dopamine transporter.

Sodium-dependent dopamine transporter, sequence (Q01959 whole entry): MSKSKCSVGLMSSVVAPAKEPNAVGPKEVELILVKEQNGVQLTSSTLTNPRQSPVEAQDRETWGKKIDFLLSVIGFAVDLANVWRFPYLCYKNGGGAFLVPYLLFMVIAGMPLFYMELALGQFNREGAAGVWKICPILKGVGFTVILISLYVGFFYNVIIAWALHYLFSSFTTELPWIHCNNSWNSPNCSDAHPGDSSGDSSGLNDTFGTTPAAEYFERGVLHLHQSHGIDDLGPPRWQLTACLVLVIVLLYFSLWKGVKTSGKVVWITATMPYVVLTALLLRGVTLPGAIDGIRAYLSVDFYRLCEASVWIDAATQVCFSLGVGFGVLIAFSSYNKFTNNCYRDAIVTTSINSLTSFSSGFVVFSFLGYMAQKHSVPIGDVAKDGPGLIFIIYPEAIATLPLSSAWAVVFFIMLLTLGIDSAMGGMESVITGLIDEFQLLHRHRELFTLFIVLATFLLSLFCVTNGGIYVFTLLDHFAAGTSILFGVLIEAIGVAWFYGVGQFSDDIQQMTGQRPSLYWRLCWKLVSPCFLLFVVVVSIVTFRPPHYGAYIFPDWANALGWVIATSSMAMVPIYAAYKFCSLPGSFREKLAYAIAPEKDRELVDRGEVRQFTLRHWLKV

For the molecule `O=C(CCCCCCCCCCS)Nc1ccc(CCCN2CCN(CCOC(c3ccc(F)cc3)c3ccc(F)cc3)CC2)cc1`, the IC50 came to 18 nM.
With `O=C(CCCCCCCCCCS)Nc1ccc(CCCN2CCN(CCOC(c3ccccc3)c3ccccc3)CC2)cc1`, half-maximal inhibition (IC50) required 10 nM.

The term IC50 denotes the concentration that gives 50% inhibition.
